Laboratory results published in the supplement of paper PMC10307832.

Assays:
Test in all cases: relative viability (nuclei count vs DMSO), 5 days (fraction); higher = more cells survive
[1] = compound: C(C(=O)C(=O)O)Br [Bromopyruvate] + C[C@]1(O)C[C@@H](c2nc(-c3ccc4ccc(-c5ccccc5)nc4c3)c3c(N)nccn32)C1 [Linsitinib] (partner 1 µM)
Outline: (§1)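 Lung cancer cell lines were pin-tool dosed in 1536-well plates on the day after seeding, with either a lone drug or a fixed anchor-drug dose plus five library-drug doses (not always all listed) in √10 steps. Nuclei were counted on 4× images after 5 days. Relative viability is the ratio of treated-well to vehicle-well nuclei counts, with each value a median of duplicate plates.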

[2] = compound: C(C(=O)C(=O)O)Br [Bromopyruvate] + Cc1nc(Nc2ncc(C(=O)Nc3c(C)cccc3Cl)s2)cc(N2CCN(CCO)CC2)n1 [Dasatinib] (partner 0.075 µM)
Outline: as §1

[3] = compound: C(C(=O)C(=O)O)Br [Bromopyruvate] + Nc1nc2[nH]cc(CCc3ccc(C(=O)N[C@@H](CCC(=O)O)C(=O)O)cc3)c2c(=O)[nH]1 [Pemetrexed] (partner 0.2 µM)
Outline: as §1

Bicalutamide + Lapatinib = compound: CC(O)(CS(=O)(=O)c1ccc(F)cc1)C(=O)Nc1ccc(C#N)c(C(F)(F)F)c1 [Bicalutamide] + CS(=O)(=O)CCNCc1ccc(-c2ccc3ncnc(Nc4ccc(OCc5cccc(F)c5)c(Cl)c4)c3c2)o1 [Lapatinib] (partner 2 µM)
Outline: as §1

| Cell Line | relative viability ([1]; first compound 1 µM) | relative viability ([1]; first compound 3.162 µM) | relative viability ([1]; first compound 10 µM) | relative viability ([1]; first compound 31.62 µM) | relative viability ([1]; first compound 100 µM) | relative viability ([2]; first compound 1 µM) | relative viability ([2]; first compound 3.162 µM) | relative viability ([2]; first compound 10 µM) | relative viability ([2]; first compound 31.62 µM) | relative viability ([2]; first compound 100 µM) | relative viability ([3]; first compound 1 µM) | relative viability ([3]; first compound 3.162 µM) | relative viability ([3]; first compound 10 µM) | relative viability ([3]; first compound 31.62 µM) | relative viability ([3]; first compound 100 µM) | relative viability (Bicalutamide + Lapatinib; first compound 0.08 µM) | relative viability (Bicalutamide + Lapatinib; first compound 0.253 µM) | relative viability (Bicalutamide + Lapatinib; first compound 0.8 µM) | relative viability (Bicalutamide + Lapatinib; first compound 2.53 µM) |
| --- | --- | --- | --- | --- | --- | --- | --- | --- | --- | --- | --- | --- | --- | --- | --- | --- | --- | --- | --- |
| NCI-H661 | 0.556 | 0.631 | 0.591 | 0.727 | 0.676 | 0.785 | 1.02 | 0.929 | 0.943 | 1.05 | 0.905 | 0.944 | 0.985 | 0.889 | 0.907 | 0.482 | 0.493 | 0.447 | 0.493 |
| NCI-H2087 | 0.856 | 1.04 | 0.932 | 0.954 | 0.959 | 0.807 | 1 | 0.914 | 0.745 | 0.824 | 0.658 | 0.745 | 0.651 | 0.72 | 0.567 | 1.24 | 1.01 | 1.15 | 1 |
| NCI-H1793 | 0.706 | 0.8 | 1.16 | 0.844 | 1.06 | 0.385 | 0.402 | 0.415 | 0.407 | 0.386 | 0.91 | 1.18 | 0.989 | 0.906 | 1.16 | 0.637 | 0.645 | 1.04 | 0.832 |
| LC-2-ad | 0.825 | 0.93 | 0.869 | 0.842 | 0.909 | 0.765 | 0.671 | 0.634 | 0.54 | 0.437 | 0.294 | 0.287 | 0.269 | 0.298 | 0.298 | 0.851 | 0.873 | 1.08 | 0.957 |
| COR-L 105 | 0.943 | 0.898 | 0.838 | 0.736 | 0.702 | 0.336 | 0.36 | 0.294 | 0.319 | 0.195 | 1.25 | 1.19 | 1.1 | 1 | 0.532 | 0.333 | 0.353 | 0.39 | 0.311 |
| NCI-H1355 | 0.778 | 0.772 | 0.914 | 0.873 | 0.866 | 0.674 | 0.761 | 0.766 | 0.713 | 0.786 | 1.08 | 1.12 | 1.14 | 1.08 | 1.08 | 1 | 0.902 | 0.974 | 1.03 |
| H3255 | 0.945 | 1.02 | 0.997 | 0.967 | 1.1 | 0.422 | 0.361 | 0.347 | 0.344 | 0.488 | 0.558 | 0.535 | 0.573 | 0.536 | 0.597 | 0.112 | 0.239 | 0.315 | 0.198 |
| NCI-H2009 | 1.16 | 1.25 | 1.22 | 1.1 | 0.97 | 0.281 | 0.297 | 0.279 | 0.243 | 0.202 | 1.01 | 1.04 | 0.936 | 0.868 | 1.11 | 1.23 | 0.997 | 1.2 | 0.758 |
| NCI-H1734 | 0.837 | 0.949 | 0.989 | 0.852 | 0.905 | 0.462 | 0.436 | 0.548 | 0.44 | 0.365 | 0.391 | 0.398 | 0.395 | 0.466 | 0.408 | 1.18 | 0.904 | 1.25 | 0.971 |
